Source: patent US9770481B2, “Inhibitors of NOX1” (UNIVERSITY OF PITTSBURGH—OF THE COMMONWEALTH SYSTEM OF …, priority 2011, dated 2017)

Legend:
Type in all cases: cell-based
Nox5 = target: T1, Nox5 (Homo sapiens, UniProt Q96PH1); assay: O2- production by lysates of HEK293 cells stably transfected with Nox5 oxidase, Ca2+-stimulated (cytochrome c); conditions: 0.1 nM to 10,000 nM
T1 construct: expressed in transfected cells; cell lysates
T1 sequence (Q96PH1 1-765): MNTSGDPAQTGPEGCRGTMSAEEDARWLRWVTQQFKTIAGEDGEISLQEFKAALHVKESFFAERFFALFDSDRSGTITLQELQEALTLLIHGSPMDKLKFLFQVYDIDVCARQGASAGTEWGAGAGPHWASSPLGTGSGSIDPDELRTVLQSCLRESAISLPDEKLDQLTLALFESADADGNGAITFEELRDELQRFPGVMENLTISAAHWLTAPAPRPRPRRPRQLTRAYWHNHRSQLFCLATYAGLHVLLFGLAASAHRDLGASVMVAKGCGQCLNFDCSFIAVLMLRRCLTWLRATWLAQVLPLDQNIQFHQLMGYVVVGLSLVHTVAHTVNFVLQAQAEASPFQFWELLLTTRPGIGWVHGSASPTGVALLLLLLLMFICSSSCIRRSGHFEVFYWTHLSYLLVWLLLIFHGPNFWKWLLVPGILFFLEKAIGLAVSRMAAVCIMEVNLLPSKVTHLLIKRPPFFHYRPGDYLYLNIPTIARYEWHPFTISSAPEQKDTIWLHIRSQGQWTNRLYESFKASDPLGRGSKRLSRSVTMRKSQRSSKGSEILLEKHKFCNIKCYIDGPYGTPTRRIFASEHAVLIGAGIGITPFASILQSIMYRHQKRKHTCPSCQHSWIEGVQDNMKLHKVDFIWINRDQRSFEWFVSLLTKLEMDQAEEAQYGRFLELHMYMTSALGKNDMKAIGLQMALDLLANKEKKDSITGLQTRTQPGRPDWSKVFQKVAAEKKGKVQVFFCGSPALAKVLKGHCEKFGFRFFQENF
Description: To test whether the inhibitory effect of NoxA1ds is specific to Nox1, the effect of NoxA1ds was tested on cells expressing Nox2, Nox4, and Nox5 as well as on purified xanthine oxidase enzyme. To test the effect on Nox2, production of O2^− was measured by the reduction of cytochrome c by cell lysates from COS cells transiently transfected with the Nox2 oxidase, stimulated with LiDS, and the treated with increasing concentrations of NoxA1ds (from 0.1 nM to 10,000 nM). Similarly, production of H2O2 was measured by Amplex red fluorescence by COS cells transiently transfected with the Nox4 oxidase and treated with increasing concentrations of NoxA1ds (from 100 nM to 10,000 nM). Production of O2^− was also measured by the reduction of cytochrome c by cell lysates from HEK293 cells stably transfected with the Nox5 oxidase stimulated with Ca^2+, and treated with increasing concentrations of NoxA1ds (from 0.1 nM to 10,000 nM). Finally, production of O2^− was measured by Electron Paramagnetic Resonance from pure xanthine oxidase enzyme preparations, stimulated with hypoxanthine and treated with increasing concentrations of NoxA1ds (from 0.1 nM to 10,000 nM).

[1] = target: T2, interaction between Nox1 and NoxA1 (Homo sapiens, UniProt Q9Y5S8); assay: FRET between Nox1-YFP and NoxA1-CFP in transfected COS22 cells; conditions: 10 μM, one hour prior to imaging
T2 construct: expressed in transfected cells; host or cells: COS22
T2 sequence (Q9Y5S8 1-564): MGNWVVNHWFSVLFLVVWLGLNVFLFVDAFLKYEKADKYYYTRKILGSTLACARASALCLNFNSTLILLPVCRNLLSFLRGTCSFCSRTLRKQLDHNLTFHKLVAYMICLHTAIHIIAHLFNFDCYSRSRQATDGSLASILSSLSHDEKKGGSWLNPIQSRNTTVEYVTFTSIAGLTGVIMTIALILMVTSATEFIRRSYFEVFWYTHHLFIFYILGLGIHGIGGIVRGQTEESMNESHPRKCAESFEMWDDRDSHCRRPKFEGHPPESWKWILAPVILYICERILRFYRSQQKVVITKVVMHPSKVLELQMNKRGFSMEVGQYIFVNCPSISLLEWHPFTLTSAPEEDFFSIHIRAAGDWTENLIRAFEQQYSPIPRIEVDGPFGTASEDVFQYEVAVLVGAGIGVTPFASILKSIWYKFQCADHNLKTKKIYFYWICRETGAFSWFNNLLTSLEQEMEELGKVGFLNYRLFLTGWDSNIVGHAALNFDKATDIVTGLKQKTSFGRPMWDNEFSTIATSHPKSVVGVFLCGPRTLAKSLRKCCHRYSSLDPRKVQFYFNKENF
T2 sequence (P13498 2-195 partner limits assumed): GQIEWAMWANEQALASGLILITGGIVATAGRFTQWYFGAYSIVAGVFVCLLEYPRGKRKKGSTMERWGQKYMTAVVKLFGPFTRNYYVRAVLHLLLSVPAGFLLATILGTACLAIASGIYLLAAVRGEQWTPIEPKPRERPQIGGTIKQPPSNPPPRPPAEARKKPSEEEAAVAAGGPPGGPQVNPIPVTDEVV
Description: FRET (fluorescence resonance energy transfer) studies were performed to study the effect of NoxA1ds on the interaction between Nox1 and NoxA1: In particular, FRET between Nox1-YFP and NoxA1-CFP transfected COS22 cells in the presence or absence of 10 μM NoxA1ds or SCRMB was evaluated. Relative fluorescence of CFP is green while YFP is red. Traces underneath the images indicate fluorescent intensities of CFP and YFP underneath the arrow overlaid on each cell.

[2] = system: human pulmonary artery endothelial cells; assay: Hypoxia-induced superoxide production by human pulmonary artery endothelial cells
Description: Experiments were also performed to evaluate the effect of NoxA1ds on hypoxia-induced superoxide production by human pulmonary artery endothelial cells.

Substance: H-EPVDALGKAKV-NH2 [NoxA1ds, [NH3^+]-EPVDALGKAKV-[CONH2]]
- Inhibitory effect on Nox5 O2- production (Nox5): did not exhibit a significant inhibitory effect
- CFP fluorescence after photobleaching of Nox1-YFP (FRET) [1]: did not result in a concomitant increase in CFP fluorescence
- O2- production under hypoxia ([2]; hypoxia 1.0% O2, 24 hrs): returned to the amount observed under normoxia
- O2- production under normoxic conditions ([2]; normoxia): negligible effect
